Several values for one entry are separate records, joined by “and”; a condition that tells them apart may be missing. Equal values may be shown once. After the bases stand the sugars from the 5' end (letter, count) and the backbone: PS all phosphorothioate, else s phosphorothioate and o phosphodiester by linkage. Methylation of C is not given here. e = 2'-O-(2-methoxyethyl) (MOE); k = constrained ethyl (cEt); d = 2'-deoxy (DNA)
Target: IRF4
Details: ASO

Row | Sequence | target mRNA inhibition (SK-MEL-28, 4 µM) | target mRNA inhibition (MM.1R, 1 µM) | other results
1 | GAGCCGCCACATCAGC (sugars k3 d10 k3, PS) | 23% |  | 
2 | GAGCCTGGGACTCAGG (sugars k4 d8 k4, PS) | 19% |  | 
3 | GAGCGGCCGTGGTGAG (sugars k3 d10 k3, PS) | 41% |  | 
4 | GAGGAACTAGTCGACA (sugars k3 d10 k3, PS) | 39% |  | 
5 | GAGGAAGCATAGAACA (sugars k3 d10 k3, PS) | 18% |  | 
6 | GAGGACCACGCCCCTC (sugars k3 d10 k3, PS) | -3% |  | 
7 | GAGGACTTATTTGTGG (sugars k3 d10 k3, PS) |  | 22% | 
8 | GAGGGTCTGGAAACTC (sugars k4 d8 k4, PS) | 8% |  | 
9 | GAGGTAAATCTTCACT (sugars k3 d10 k3, PS) | 70% |  | 
10 | GAGGTTTTCCTAAATA (sugars k3 d10 k3, PS) | 69% |  | target mRNA inhibition (SK-MEL-28, 0.185 µM): 20%; target mRNA inhibition (SK-MEL-28, 5 µM): 75%; target mRNA inhibition (SK-MEL-28, 15 µM): 89%
11 | GAGTTGTACAGGACAG (sugars k3 d10 k3, PS) |  | 51% and 52% | 
12 | GATAACGAGGTGCCTT (sugars k3 d10 k3, PS) | 18% |  | 
13 | GATAAGGCACTACTTC (sugars k3 d10 k3, PS) | 47% |  | 
14 | GATACAAAACGGACTG (sugars k3 d10 k3, PS) | 44% |  | 
15 | GATACAGCAGGCACTT (sugars k3 d10 k3, PS) | 63% |  | 
16 | GATATAAATAGCTGTT (sugars k4 d8 k4, PS) | 61% |  | target mRNA inhibition (MM.1R, 0.074 µM): 5% and 3%; target mRNA inhibition (MM.1R, 0.222 µM): 6% and 15%; target mRNA inhibition (MM.1R, 0.666 µM): 12%; target mRNA inhibition (MM.1R, 2 µM): 24% and 19%; target mRNA inhibition (SK-MEL-28, 0.185 µM): 2% and 6% and 10%; target mRNA inhibition (SK-MEL-28, 5 µM): 57% and 76%
17 | GATATCAAAGATCTCC (sugars k3 d10 k3, PS) | 57% |  | 
18 | GATCACTCAGAATTTT (sugars k3 d10 k3, PS) | 50% |  | 
19 | GATCATAAAGGACAAT (sugars k3 d10 k3, PS) | 30% |  | 
20 | GATCTCCATGGTGCAG (sugars k3 d10 k3, PS) |  | 22% and 12% | 
21 | GATGACTCCATGAGGT (sugars k3 d10 k3, PS) | 67% |  | 
22 | GATGCTCAGAATGAAG (sugars k3 d10 k3, PS) | 43% |  | 

Row | Sequence | target mRNA inhibition (SK-MEL-28, 4 µM) | target mRNA inhibition (MM.1R, 1 µM) | other results
23 | GATGGGACCGCCCTGG (sugars k3 d10 k3, PS) |  | -13% | 
24 | GATGTATACCAACGAC (sugars k3 d10 k3, PS) | 68% |  | 
25 | GATGTGATAGCTGAGC (sugars kddddddddddkekek, PS) |  | 50% | 
26 | GATGTGATAGCTGAGC (sugars kdddddddddkekeke, PS) |  | 18% | 
27 | GATTATATACTGGTTG (sugars k2 d9 e3 k2, PS) |  | 42% | 
28 | GATTATATACTGGTTG (sugars k3 d10 k3, PS) | 59% |  | 
29 | GATTATATACTGGTTG (sugars kkdddddddddekeke, PS) |  | 46% | 
30 | GATTGATGTGATAGCT (sugars k3 d10 k3, PS) | 56% |  | 
31 | GATTTCTAGGTAATCT (sugars k3 d10 k3, PS) | 31% |  | 
32 | GCAAAAAATATAACGG (sugars k3 d10 k3, PS) | 47% |  | 
33 | GCAAAAGAAACGAGTT (sugars k3 d10 k3, PS) | 8% |  | 
34 | GCAAGATGACTCCATG (sugars k3 d10 k3, PS) | 63% |  | 
35 | GCAAGCTATATTAAAG (sugars k3 d10 k3, PS) | 71% | -19% | target mRNA inhibition (MM.1R, 0.0625 µM): 1%; target mRNA inhibition (MM.1R, 0.074 µM): 17%; target mRNA inhibition (MM.1R, 0.222 µM): 26%; target mRNA inhibition (MM.1R, 0.25 µM): 1%; target mRNA inhibition (MM.1R, 0.666 µM): 41%; target mRNA inhibition (MM.1R, 2 µM): 82%; target mRNA inhibition (MM.1R, 4 µM): 1%
36 | GCAAGCTGAATGCTCT (sugars k3 d10 k3, PS) | 53% |  | 
37 | GCAAGTCTACAGCCCC (sugars k3 d10 k3, PS) |  |  | target mRNA inhibition (MM.1R, 0.0625 µM): -7%; target mRNA inhibition (MM.1R, 0.25 µM): 7%; target mRNA inhibition (MM.1R, 4 µM): 68%
38 | GCAAGTGGAGGTCTTT (sugars k3 d10 k3, PS) | 74% and 79% |  | 
39 | GCAAGTGTCTAAAGTC (sugars k3 d10 k3, PS) |  | 49% and 53% | 
40 | GCAATGAACGGAAGTT (sugars k3 d10 k3, PS) | 45% |  | 
41 | GCACAGCCGTCCGCCT (sugars k3 d10 k3, PS) | 16% |  | 
42 | GCACAGGCGCGGACGC (sugars k3 d10 k3, PS) |  | -6% | 
43 | GCACATCAATGTTTTA (sugars kddddddddddkekek, PS) |  | 13% and 0% | 
44 | GCACATCAATGTTTTA (sugars kkddddddddddkeke, PS) |  | 49% and 50% | 

Row | Sequence | target mRNA inhibition (SK-MEL-28, 4 µM) | target mRNA inhibition (MM.1R, 1 µM) | other results
45 | GCACATCAATGTTTTA (sugars kkdddddddddekeke, PS) |  | 10% and 12% | 
46 | GCACATCAATGTTTTA (sugars kkdddddddddkdkdk, PS) |  | 11% and 7% | 
47 | GCAGCCAAGGATAACC (sugars k3 d10 k3, PS) |  | 6% | 
48 | GCAGCTTCTCAATGTT (sugars k3 d10 k3, PS) | 43% |  | 
49 | GCAGTAAACGCAAGTC (sugars k3 d10 k3, PS) | 54% |  | 
50 | GCAGTCAATTGGACGC (sugars k3 d10 k3, PS) | 77% |  | 
51 | GCAGTGATGTCAGGTT (sugars k3 d9 k3 e1, PS) |  | 62% | target mRNA inhibition (MM.1R, 0.074 µM): 15%; target mRNA inhibition (MM.1R, 0.222 µM): 33%; target mRNA inhibition (MM.1R, 0.666 µM): 51%; target mRNA inhibition (MM.1R, 2 µM): 73%
52 | GCAGTGATGTCAGGTT (sugars kkkddddddddkekek, PS) |  | 36% | 
53 | GCATAAAAGGTTCCTG (sugars k4 d8 k4, PS) | 47% |  | target mRNA inhibition (MM.1R, 0.074 µM): 0%; target mRNA inhibition (MM.1R, 0.222 µM): -3%; target mRNA inhibition (MM.1R, 0.666 µM): -7%; target mRNA inhibition (MM.1R, 2 µM): 3%; target mRNA inhibition (SK-MEL-28, 0.185 µM): 4% and 9% and 17%; target mRNA inhibition (SK-MEL-28, 5 µM): 34% and 37% and 50%; target mRNA inhibition (SK-MEL-28, 15 µM): 75% and 72% and 89%
54 | GCATAGAGCCCGTCGG (sugars k3 d10 k3, PS) | 50% |  | 
55 | GCATAGGTCCTTCAGA (sugars k3 d10 k3, PS) | 31% |  | 
56 | GCATCGAGATCAGTCT (sugars k3 d10 k3, PS) | 57% |  | 
57 | GCATGACAGGGCGAGG (sugars k3 d10 k3, PS) | 43% |  | 
58 | GCATGAGGGTGACACA (sugars k3 d10 k3, PS) | 42% |  | 
59 | GCATTTGGAAAAAGCC (sugars k3 d10 k3, PS) | 71% |  | 
60 | GCATTTTATCATCCGA (sugars kddddddddddkekek, PS) |  | 21% | 
61 | GCATTTTATCATCCGA (sugars kkkdddddddddkeke, PS) |  | 32% | 
62 | GCCAAACAAACAGAGG (sugars k3 d10 k3, PS) | 22% |  | 
63 | GCCAACTTATAGCACT (sugars k3 d10 k3, PS) |  |  | target mRNA inhibition (MM.1R, 0.0625 µM): 17%; target mRNA inhibition (MM.1R, 0.25 µM): -17%; target mRNA inhibition (MM.1R, 4 µM): 8%
64 | GCCAAGGAGGCGGGCC (sugars k3 d10 k3, PS) |  | -2% | 
65 | GCCAAGGATAACCTGA (sugars k3 d10 k3, PS) | 69% | 27% | target mRNA inhibition (MM.1R, 0.0625 µM): 1%; target mRNA inhibition (MM.1R, 0.074 µM): 0%; target mRNA inhibition (MM.1R, 0.222 µM): 5%; target mRNA inhibition (MM.1R, 0.25 µM): 10%; target mRNA inhibition (MM.1R, 0.666 µM): 13%; target mRNA inhibition (MM.1R, 2 µM): 37%; target mRNA inhibition (MM.1R, 4 µM): 59%
66 | GCCACCGACTCTTTTT (sugars k3 d10 k3, PS) |  | -5% | 

— the OligoGym collection
